Consider 12 molecules from ChEMBL document CHEMBL1201862, “PubChem BioAssay data set” (2004).

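Values below derive from 48-hour exposures of cells grown in 96-well plates, with endpoints linearly interpolated between the two concentrations bracketing the appropriate inhibition level. The concentration for 50% growth inhibition is given as GI50.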 The source made the active and inactive calls. No stated cut-off is given here; in the data, active = GI50 up to about 1.1 µM and inactive = higher.

What all share (test): DTP human tumour cell line panel, 48 h
Assay [1] deals with 786-0.
The test system of assay [2] is CAKI-1.
In assay [3] the test system is HCC 2998.
Assay [4] has as its system HCT-116.
Assay [5] deals with K562.
Assay [6] concerns LOX IMVI.
Assay [7] relates to M14.
In assay [8] the test system is MOLT-4.
In assay [9] the test system is Malme-3M.
Assay [10] deals with NCI-H23.
The test system of assay [11] is NCI-H460.
Assay [12] has as its system NCI/ADR-RES.
For assay [13], the system named is OVCAR-5.
Assay [14] has as its system CCRF-CEM.
The subject of assay [15] is COLO 205.
For assay [16], the system named is MCF7.
Assay [17] has as its system SF-539.
Assay [18] concerns SK-OV-3.
Assay [19] has as its system SNB-75.

With `O=c1[nH]c2c(S)nc(O)nc2n1-c1ccccc1`, the GI50 in [1], in [2], in assay [3], in assay [4], in assay [5] and in [6] was > 100 µM (inactive) throughout. Further, the GI50 in [7], in assay [8], in assay [9], in assay [10], in assay [11] and in [12] was > 100 µM (inactive) each time. In addition, the GI50 in [13] was > 100 µM (inactive).
For the molecule `CC1=C2c3ccccc3N(S(=O)(=O)c3ccccc3)[C@H]2[C@H](C(=O)N2C3CC4CC[C@@]3(CS2(=O)=O)C4(C)C)CC1` (some centres undefined), the GI50 in assay [1] is 0.41 µM (active); in assay [2], 11.2 µM (inactive); in assay [14], 35.3 µM (inactive); in [15] it was 47.9 µM (inactive); in assay [4], 11.7 µM (inactive); in assay [5] it was 7.24 µM (inactive). Moreover, the GI50 in [6] is 23.6 µM (inactive); in assay [7], 64.4 µM (inactive); in [16] it was 18 µM (inactive); in assay [8], 6.38 µM (inactive); in [9] it was 28.9 µM (inactive); in assay [10] it was 40.6 µM (inactive). The GI50 in assay [11] is 5.48 µM (inactive); in [12], 35.9 µM (inactive); in assay [13], > 100 µM (inactive); in assay [17] it was 0.415 µM (active); in assay [18], 22.1 µM (inactive); in assay [19] it was 0.635 µM (active).
With `CCNC1(c2cccc(C)c2)OC(C)(C)c2cccc3cccc1c23` (centres undefined), the GI50 in assay [1] was 18.8 µM (inactive); in assay [2], 19.8 µM (inactive); in assay [14] it was 2.5 µM (inactive); in [15] it was 16.1 µM (inactive); in assay [4], 27 µM (inactive); in [5], 11.7 µM (inactive). Besides, the GI50 in assay [6] was 17.3 µM (inactive); in [7], 17.8 µM (inactive); in assay [16] it was 17.7 µM (inactive); in assay [9], 16.3 µM (inactive); in assay [10], 17.9 µM (inactive); in [11], 15.2 µM (inactive). The GI50 in [12] was 19.8 µM (inactive); in [13], 19.1 µM (inactive); in assay [17] it was 17.9 µM (inactive); in assay [18] it was 17.7 µM (inactive); in assay [19], 15 µM (inactive).
Turning to `N#Cc1c(N2CCCC2)ncn(Cc2ccccc2)c1=O`, the GI50 in assay [1], in assay [14], in assay [15], in [3], in [4] and in [5] was > 100 µM (inactive) throughout. For the same molecule, the GI50 in assay [6], in [7], in assay [8], in assay [9], in assay [11] and in [12] was > 100 µM (inactive) throughout. Moreover, the GI50 in [13], in [17], in [18] and in assay [19] was > 100 µM (inactive) throughout.
For `COc1ccc(C2c3cc4c(cc3OC(NNS(=O)(=O)c3ccc(C)cc3)C2C)OCO4)cc1` (centres undefined), the GI50 in assay [1] was 50.1 µM (inactive); in [2] it was 65.9 µM (inactive); in [14], 11.1 µM (inactive); in assay [15] it was 36.3 µM (inactive); in assay [3] it was > 100 µM (inactive); in assay [4] it was 45.9 µM (inactive). Further, the GI50 was 10.6 µM (inactive) in assay [5]; 79.8 µM (inactive) in assay [6]; > 100 µM (inactive) in assay [7]; 41.1 µM (inactive) in assay [16]; 13.1 µM (inactive) in assay [8]; > 100 µM (inactive) in [9]. In addition, the GI50 in assay [10] was 99.8 µM (inactive); in [11] it was 41 µM (inactive); in assay [13] it was > 100 µM (inactive); in assay [17], > 100 µM (inactive); in assay [18], > 100 µM (inactive); in assay [19] it was 37.4 µM (inactive).
`O=C1c2cscc2C(=O)C1(O)O`: the GI50 in assay [1] was 61.5 µM (inactive); in assay [2], 30.8 µM (inactive); in assay [14] it was 23.7 µM (inactive); in assay [15], 19.2 µM (inactive); in assay [4], 21.3 µM (inactive); in assay [5], 33 µM (inactive). Also, the GI50 in assay [6] was > 100 µM (inactive); in [7], 22.2 µM (inactive); in assay [16] it was > 100 µM (inactive); in assay [8] it was 22.5 µM (inactive); in assay [9], 23.4 µM (inactive); in [10] it was 22.1 µM (inactive). For the same molecule, the GI50 in assay [11], in assay [12], in [13], in assay [17] and in assay [18] was > 100 µM (inactive) throughout.
For `COc1cc2c(cc1OCCCOc1cc(-c3ccc(F)cc3)nc(C)n1)N=C[C@@H]1CCCN1C2=O`, the GI50 is 16.7 µM (inactive) in [1]; 17.5 µM (inactive) in assay [2]; 15.8 µM (inactive) in assay [14]; 29.1 µM (inactive) in assay [15]; > 10 µM (inactive) in assay [3]; 16.9 µM (inactive) in assay [4]. The GI50 in [6] is 13.6 µM (inactive); in assay [7], 15.5 µM (inactive); in assay [16], 29.4 µM (inactive); in assay [8], 14.3 µM (inactive); in assay [9] it was 12.8 µM (inactive); in [10], 15.1 µM (inactive). Also, the GI50 in assay [11] is > 100 µM (inactive); in [17] it was 16.6 µM (inactive); in assay [18], 25.6 µM (inactive); in [19], 19.1 µM (inactive).
Turning to `CCOC(=O)Nc1[nH]cc(-c2ccccc2)c1C#N`, the GI50 in assay [1], in assay [14], in [15], in assay [4], in [5] and in assay [6] was > 100 µM (inactive) in each case. Also, the GI50 in [7], in [16], in assay [8], in assay [9], in assay [10] and in assay [12] was > 100 µM (inactive) each time. Besides, the GI50 in assay [13], in assay [18] and in assay [19] was > 100 µM (inactive) throughout.
With `Cc1ccc(S(=O)(=O)NCCCCC(N)C(=O)O)cc1` (centres undefined), the GI50 in assay [1], in [2], in [14], in assay [15], in assay [4] and in assay [5] was > 100 µM (inactive) throughout. In addition, the GI50 in [7], in [16], in assay [8], in assay [9], in [10] and in assay [11] was > 100 µM (inactive) each time. The GI50 in [12], in assay [13], in [17], in assay [18] and in assay [19] was > 100 µM (inactive) each time.
For `Cc1ccc(C)n2c1nc1cc3ccccc3cc12`, the GI50 is 36.2 µM (inactive) in assay [1]; 33.4 µM (inactive) in [14]; 3.52 µM (inactive) in [15]; 15.3 µM (inactive) in assay [4]; 47.2 µM (inactive) in assay [5]; 42.6 µM (inactive) in assay [7]. Moreover, the GI50 in assay [16] is 1.14 µM (inactive); in assay [8], 23.3 µM (inactive); in assay [9], 50.1 µM (inactive); in assay [10], 25.2 µM (inactive); in [12], 49.4 µM (inactive); in assay [13], 74.3 µM (inactive). Further, the GI50 in [17] is 30.7 µM (inactive); in [18], 32.4 µM (inactive); in [19], 17 µM (inactive).
Regarding `COc1ccc2c(c1)CC[C@@H]1C2CC[C@]2(C)C(=O)N(CCN(C)C)C(=O)CC12` (some centres undefined), the GI50 in assay [1], in assay [2], in [14], in [15], in [3] and in assay [4] was > 100 µM (inactive) each time. The GI50 in [5], in [7], in assay [16], in assay [8], in [9] and in assay [10] was > 100 µM (inactive) each time. In addition, the GI50 in [11], in assay [13], in assay [17], in assay [18] and in [19] was > 100 µM (inactive) in each case.
On to `Cc1cccc2c(=O)c3cccc([C@@H](C)C(=O)O)c3oc12`, for which the GI50 in assay [1], in assay [2], in [14], in [15], in assay [3] and in assay [4] was > 100 µM (inactive) in each case. Moreover, the GI50 in assay [5], in assay [6], in assay [7], in assay [8], in assay [10] and in assay [11] was > 100 µM (inactive) each time. Also, the GI50 in assay [12], in [17] and in [18] was > 100 µM (inactive) in each case.
